Assay results published in PubChem BioAssay AID330 (DTP/NCI, 2004).
Where “and” joins values, the source holds several entries; their conditions need not be identical. Identical values can stand only once. Toxic doses and inconclusive results are not listed. How the source made its calls: active means survival T/C of 150% or more; inactive means T/C below 125% in these data.

Test system: P388 leukemia ip, CD2F1 mice, survival T/C
Experiment: NCI In Vivo Anticancer Drug Screen. Data for tumor model P388 Leukemia (intraperitoneal) in CD2F1 (CDF1) mice
Details: endpoint: median survival time, higher = longer survival
Summary of the method: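 Mice carrying the transplanted tumor received test compound or vehicle. Survival was recorded in each group, and the value is the treated-group measurement divided by that of the vehicle-treated control group.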

[1] = dose: 25.0 mg/kg/injection, schedule: Q01DX009 (ip), vehicle: saline
[2] = dose: 50.0 mg/kg/injection, schedule: Q01DX009 (ip), vehicle: saline
[3] = dose: 100.0 mg/kg/injection, schedule: Q01DX009 (ip), vehicle: saline
[4] = dose: 200.0 mg/kg/injection, schedule: Q01DX009 (ip), vehicle: saline
[5] = dose: 50.0 mg/kg/injection, schedule: Q01DX005 (ip), vehicle: Klucel (hydroxypropylcellulose) (HPC)
[6] = dose: 100.0 mg/kg/injection, schedule: Q01DX005 (ip), vehicle: Klucel (hydroxypropylcellulose) (HPC)
[7] = dose: 200.0 mg/kg/injection, schedule: Q01DX005 (ip), vehicle: Klucel (hydroxypropylcellulose) (HPC)
[8] = dose: 100.0 mg/kg/injection, schedule: Q01DX009 (ip), vehicle: saline with Tween-80
[9] = dose: 60.0 mg/kg/injection, schedule: Q01DX005 (ip), vehicle: saline with Tween-80
[10] = dose: 100.0 mg/kg/injection, schedule: Q04DX003 (ip), vehicle: saline
[11] = dose: 200.0 mg/kg/injection, schedule: Q04DX003 (ip), vehicle: saline
[12] = dose: 400.0 mg/kg/injection, schedule: Q04DX003 (ip), vehicle: saline
[13] = dose: 60.0 mg/kg/injection, schedule: Q01DX005 (ip), vehicle: saline
[14] = dose: 50.0 mg/kg/injection, schedule: Q01DX005 (ip), vehicle: saline with Tween-80
[15] = dose: 100.0 mg/kg/injection, schedule: Q01DX005 (ip), vehicle: saline with Tween-80
[16] = dose: 60.0 mg/kg/injection, schedule: Q01DX005 (ip), vehicle: Klucel (hydroxypropylcellulose) (HPC)
[17] = dose: 120.0 mg/kg/injection, schedule: Q01DX005 (ip), vehicle: Klucel (hydroxypropylcellulose) (HPC)
[18] = dose: 240.0 mg/kg/injection, schedule: Q01DX005 (ip), vehicle: Klucel (hydroxypropylcellulose) (HPC)
[19] = dose: 120.0 mg/kg/injection, schedule: Q01DX005 (ip), vehicle: saline with Tween-80
[20] = dose: 240.0 mg/kg/injection, schedule: Q01DX005 (ip), vehicle: saline with Tween-80

Measured: T/C

O=C1c2ccccc2C(=O)N1CC[P+](C1CCCCC1)(C1CCCCC1)C1CCCCC1
inactive: dose: 0.78 mg/kg/injection, schedule: Q01DX009 (ip), vehicle: saline with Tween-80 110 % of control | dose: 1.56 mg/kg/injection, schedule: Q01DX009 (ip), vehicle: saline with Tween-80 112 % of control | dose: 3.13 mg/kg/injection, schedule: Q01DX009 (ip), vehicle: water 97 % of control | dose: 6.25 mg/kg/injection, schedule: Q01DX009 (ip), vehicle: saline with Tween-80 116 % of control | dose: 6.25 mg/kg/injection, schedule: Q01DX009 (ip), vehicle: water 118 % of control | dose: 12.5 mg/kg/injection, schedule: Q01DX009 (ip), vehicle: water 118 % of control | dose: 25.0 mg/kg/injection, schedule: Q01DX009 (ip), vehicle: water 118 % of control | dose: 50.0 mg/kg/injection, schedule: Q01DX009 (ip), vehicle: water 86 % of control

CS(=O)(=O)Nc1cc(C(O)CNC2CC2)ccc1O (configuration not stated)
inactive: dose: 0.37 mg/kg/injection, schedule: Q01DX001 (ip), vehicle: saline 96 % of control | dose: 0.75 mg/kg/injection, schedule: Q01DX001 (ip), vehicle: saline 98 % of control | dose: 1.5 mg/kg/injection, schedule: Q01DX001 (ip), vehicle: saline 100 % of control and 95 % of control

CCCC(=O)Nc1ccn(C2OC(CO)C(O)C2O)c(=O)n1 (configuration not stated)
inactive: [1] 99 % of control | [2] 96 % of control | [3] 94 % of control | [4] 96 % of control

Oc1c(Cl)cc(Cl)cc1C=NCCN(CCN=Cc1cc(Cl)cc(Cl)c1O)CCN=Cc1cc(Cl)cc(Cl)c1O
inactive: [5] 98 % of control | [6] 92 % of control | [7] 101 % of control

C[Si](C)(C)O/C=C1\CCCCC1=O
inactive: dose: 50.0 mg/kg/injection, schedule: Q01DX009 (ip), vehicle: saline with Tween-80 121 % of control | [8] 106 % of control

OC1COc2ccccc2OCCOCCOc2ccccc2OC1
inactive: dose: 15.0 mg/kg/injection, schedule: Q01DX005 (ip), vehicle: saline with Tween-80 100 % of control | dose: 30.0 mg/kg/injection, schedule: Q01DX005 (ip), vehicle: saline with Tween-80 94 % of control | [9] 95 % of control and 96 % of control

CCCC[N+](CCCC)=c1ccc2nc3c(C)cc(N(CC)CC)cc3sc-2c1
inactive: dose: 0.75 mg/kg/injection, schedule: Q01DX005 (ip), vehicle: saline 111 % of control | dose: 1.5 mg/kg/injection, schedule: Q01DX005 (ip), vehicle: saline 112 % of control | dose: 3.0 mg/kg/injection, schedule: Q01DX005 (ip), vehicle: saline 118 % of control and 120 % of control

NC=O
inactive: [8] 109 % of control | [10] 100 % of control | dose: 200.0 mg/kg/injection, schedule: Q01DX009 (ip), vehicle: saline with Tween-80 118 % of control | [11] 100 % of control | dose: 400.0 mg/kg/injection, schedule: Q01DX009 (ip), vehicle: saline with Tween-80 118 % of control | [12] 118 % of control

O=c1[nH]c(=O)n(C2OC(CO)C(O)C2O)c(=O)[nH]1 (configuration not stated)
inactive: [13] 100 % of control | dose: 120.0 mg/kg/injection, schedule: Q01DX005 (ip), vehicle: saline 95 % of control | dose: 240.0 mg/kg/injection, schedule: Q01DX005 (ip), vehicle: saline 96 % of control

CC12CC3CC(C1)CC(Br)(C3)C2
inactive: dose: 50.0 mg/kg/injection, schedule: Q01DX009 (ip), vehicle: Klucel (hydroxypropylcellulose) (HPC) 103 % of control and 111 % of control | dose: 100.0 mg/kg/injection, schedule: Q01DX009 (ip), vehicle: Klucel (hydroxypropylcellulose) (HPC) 100 % of control | dose: 200.0 mg/kg/injection, schedule: Q01DX009 (ip), vehicle: Klucel (hydroxypropylcellulose) (HPC) 100 % of control

CC1CN(CCC#N)CC(C)O1 (configuration not stated)
inactive: [1] 101 % of control | [2] 101 % of control | [3] 101 % of control | [4] 104 % of control

Cc1cccc(Cl)c1NC1=NCCO1
inactive: dose: 6.25 mg/kg/injection, schedule: Q04DX003 (ip), vehicle: saline with Tween-80 95 % of control | dose: 12.5 mg/kg/injection, schedule: Q04DX003 (ip), vehicle: saline with Tween-80 95 % of control | dose: 25.0 mg/kg/injection, schedule: Q04DX003 (ip), vehicle: saline with Tween-80 100 % of control

CCN(CC)CCOc1ccc(C)c(C)c1
inactive: [14] 106 % of control | [15] 103 % of control

O=C(NC1(N2CCOCC2)CC1)c1ccc(Cl)cc1
inactive: [16] 88 % of control | [17] 103 % of control | [18] 103 % of control

CC1=Nc2cccnc2N(C)N1C
inactive: dose: 15.0 mg/kg/injection, schedule: Q01DX005 (ip), vehicle: saline 94 % of control | dose: 30.0 mg/kg/injection, schedule: Q01DX005 (ip), vehicle: saline 98 % of control | [13] 98 % of control and 106 % of control

Cc1ccc(NC(=O)NCc2ccco2)cc1[N+](=O)[O-]
inactive: [5] 96 % of control | [6] 96 % of control | [7] 89 % of control

Cc1cc(=O)oc2c(-c3ccccc3)n[nH]c(=O)c12
inactive: [16] 104 % of control | [17] 95 % of control | [18] 97 % of control

O=C(O)/C=C/CCCCCO
inactive: dose: 100.0 mg/kg/injection, schedule: Q01DX001 (ip), vehicle: saline with Tween-80 94 % of control | dose: 200.0 mg/kg/injection, schedule: Q01DX001 (ip), vehicle: saline with Tween-80 97 % of control | dose: 400.0 mg/kg/injection, schedule: Q01DX001 (ip), vehicle: saline with Tween-80 90 % of control

COC(=O)c1[nH]c(=O)c(C#N)c(C(=O)OC)c1C(=O)c1ccncc1
inactive: [14] 95 % of control | [15] 92 % of control

Cc1cc(=O)n(-c2ccc(F)cc2)[nH]1
inactive: [16] 89 % of control | [17] 92 % of control | [18] 90 % of control

O=C(O)C1CSCN1c1cccc[n+]1[O-] (configuration not stated)
inactive: dose: 25.0 mg/kg/injection, schedule: Q01DX005 (ip), vehicle: saline with Tween-80 101 % of control | [14] 102 % of control | [15] 99 % of control

O=c1c(CCl)c(-c2ccc([N+](=O)[O-])cc2)sc2ccccc12
inactive: dose: 100.0 mg/kg/injection, schedule: Q04DX002 (ip), vehicle: saline with Tween-80 100 % of control | dose: 200.0 mg/kg/injection, schedule: Q04DX002 (ip), vehicle: saline with Tween-80 98 % of control | dose: 400.0 mg/kg/injection, schedule: Q04DX002 (ip), vehicle: saline with Tween-80 92 % of control

COc1ccc(-n2cccc2/C=N\O)cc1OC
inactive: [9] 93 % of control | [19] 94 % of control | [20] 93 % of control

CC1/C(=N\Nc2ccc([N+](=O)[O-])cc2)CC2C3(C)CCC2(C(C)C(=O)O)C(=O)C13 (configuration not stated)
inactive: [10] 93 % of control | [11] 93 % of control | [12] 95 % of control

Cc1ccc(NC(=O)N2CCCCC2)cc1NC(=O)N1CCCCC1
inactive: [9] 94 % of control | [19] 91 % of control | [20] 88 % of control
